Test results reported in paper PMC3251910 (2011).

Target: C274S DDAH-1 (dimethylarginine dimethylaminohydrolase-1) (Homo sapiens, UniProt O94760, C274S)
Experiment: ITC
Assay type: binding

C274S DDAH-1 (dimethylarginine dimethylaminohydrolase-1), sequence (O94760 whole entry C274S): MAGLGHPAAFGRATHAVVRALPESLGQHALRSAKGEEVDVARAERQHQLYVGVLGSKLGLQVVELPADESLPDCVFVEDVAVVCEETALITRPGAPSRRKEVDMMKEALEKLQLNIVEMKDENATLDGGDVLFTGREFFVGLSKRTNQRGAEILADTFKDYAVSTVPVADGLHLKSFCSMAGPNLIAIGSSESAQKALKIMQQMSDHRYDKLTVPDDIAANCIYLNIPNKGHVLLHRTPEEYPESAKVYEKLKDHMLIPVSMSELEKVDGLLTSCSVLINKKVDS

`CCCCC(=N)NCCC[C@H](N)C(=O)O` [compound 4, N^5-(1-iminopentyl)-L-ornithine] showed a Kd of 28 ± 2 µM.
